Measured values published in patent US20130281544A1, “HEPATOPROTECTANT ACTIVITY OF GARCINOL” (priority 2010, published 2013).

System: paracetamol induced liver damage in rats
Experiment: Serum enzymes ALT, AST, ALP in paracetamol (APAP) induced liver damage
Format: in vivo, Male Wistar Rats
Conditions: for ALP percent change / ALT percent change / AST percent change / ALP / ALT / AST: serum; for ALP / ALT / AST: Mean ± SE
Experimental: Doses of Garcinol (GC) used for the study: 1.25, 2.5, 5, 10 mg/kg p.o.
Standard drug: Silymarin (50 mg/kg) p.o.
Experimental animals orally received paracetamol (400 mg/kg body weight) for seven days. The animals from drug treated group received 400 mg/kg body weight of paracetamol dissolved in water orally along with graded doses of test drug Garcinol for seven days. The standard group animals received 50 mg/kg body weight of standard drug silymarin and 400 mg/kg body weight of paracetamol for seven days and served as standard control. [N. Kanchana and A. Mohamed Sadiq, Hepatoprotective effect of Plumbago zeylanica on paracetamol induced liver toxicity in rats, Int J Pharm Pharm Sci, Vol 3, Issue 1, 151-154 (2011)].
Blood was collected from the retro-orbital plexus of experimental animals and no anti-coagulant was added. Blood was made to stand at room temperature for 1 hour. It was then centrifuged and clear serum was separated. The serum was then stored for analysis. Reference: (Magari et al., 2004).
(ASPARTATE AMINOTRANSFERASE and ALANINE AMINOTRANSFERASE), Reference: Ritman S, Frankel S, (1957). A colorimeteric method for the determination of serum glutamic oxaloacetic and glutamic pyruvic transaminases. American Journal of Clinical Pathology; 28: 56-63.
0.2 ml of serum, collected from test and control samples, was mixed with 1.0 ml of buffer solution and incubated for 60 min at 37° C. in a water bath. After the addition of 1.0 ml of chromogen solution, the samples were kept at room temperature for 20 minutes for the reaction to proceed and 10 ml NaOH was added. The optical density was red at 546 nm after 5 min. To the blank, serum was added after the addition of chromogen solution.
(ALKALINE PHOSPHATASE), Reference: Klaus Walter and Schutt C. (1974). Acid and alkaline phosphatase in serum. In: Methods of Enzymatic Analysis. Eds. Hans Ulrich Bergmeyer, Verlag ChemieWeinheim, Academic press, Inc. New York, 2nd Edition, Vol. 2, pp. 855-64.
Alkaline phosphatase activity measurement is based on the ability of the enzyme to hydrolyze p-nitrophenol phosphate under alkaline conditions. The cleaved product p-nitrophenol is yellow in alkaline solution and is measured at 400-420 nm (Klaus and Schutt, 1974). 2.0 ml of buffered substrate was taken in the tubes ‘Test’ ‘Control’ and ‘Blank’ followed by addition of serum and distilled water (0.1 ml) in ‘Test’ and ‘Blank’ respectively and incubated in a water bath for 30 minutes at 25° C. After incubation sodium hydroxide was added (0.25 N, 2 ml) to all the tubes, which was followed by serum (0.1 ml) to the tubes marked ‘Control’. The yellow colour formed was measured spectrophotometrically against blank at 410 nm. […]

C=C(C)[C@@H](CC=C(C)C)C[C@@]12C[C@@H](CC=C(C)C)C(C)(C)[C@@](CC=C(C)C)(C(=O)C(C(=O)c3ccc(O)c(O)c3)=C1O)C2=O [Garcinol]
Average Protection (1.25 mg/kg p.o.): 13.06%
Average Protection (2.50 mg/kg p.o.): 21.51%
Average Protection (5.00 mg/kg p.o.): 36.31%
Average Protection (10.00 mg/kg p.o.): 33.22%
ALP percent change (1.25 mg/kg p.o.): (8.21) %
ALT percent change (1.25 mg/kg p.o.): (21.69) %
AST percent change (1.25 mg/kg p.o.): (9.30) %
ALP (1.25 mg/kg p.o.): 37.21 ± 3.44 μmol min/lt
ALT (1.25 mg/kg p.o.): 862.97 ± 53.38 μmol min/lt
AST (1.25 mg/kg p.o.): 761.61 ± 43.96 μmol min/lt
ALP percent change (2.50 mg/kg p.o.): (15.44) %
ALT percent change (2.50 mg/kg p.o.): (26.62) %
AST percent change (2.50 mg/kg p.o.): (22.49) %
ALP (2.50 mg/kg p.o.): 34.28 ± 1.98 μmol min/lt
ALT (2.50 mg/kg p.o.): 808.64 ± 38.55 μmol min/lt
AST (2.50 mg/kg p.o.): 650.88 ± 35.84 μmol min/lt
ALP percent change (5.00 mg/kg p.o.): (24.17) %
ALT percent change (5.00 mg/kg p.o.): (39.96) %
AST percent change (5.00 mg/kg p.o.): (44.81) %
ALP (5.00 mg/kg p.o.): 30.74 ± 2.05 μmol min/lt
ALT (5.00 mg/kg p.o.): 661.67 ± 51.40 μmol min/lt
AST (5.00 mg/kg p.o.): 463.41 ± 38.56 μmol min/lt
ALP percent change (10.00 mg/kg p.o.): (17.11) %
ALT percent change (10.00 mg/kg p.o.): (46.44) %
AST percent change (10.00 mg/kg p.o.): (36.12) %
ALP (10.00 mg/kg p.o.): 33.60 ± 1.93 μmol min/lt
ALT (10.00 mg/kg p.o.): 590.22 ± 50.98 μmol min/lt
AST (10.00 mg/kg p.o.): 536.39 ± 44.13 μmol min/lt
